Here are results for 4 compounds from patent publication US20030138388A1, “Peptides and the use thereof in darkening the skin” (priority 2001, published 2003).

The subject of test [1] is keratinocyte-melanocyte co-cultures. The test is described as follows: Induced pigmentation in keratinocyte-melanocyte co-cultures, DOPA staining and computerized image analysis. The test is classed as cell-based, Human. As to the method: The peptides Peptide 1 and Peptide 2 and various pigments were tested, alone or in combination, with keratinocyte-melanocyte cultures for their effect on cell pigmentation, using DOPA staining and computerized image analysis. The pigments that were tested were the pigmented natural extract Hedychium spicatum extract sold as Kapur Kachali from Amsar Private Limited (Indore, India), copper chloride from Sigma (St. Louis, Mo.) and the water-soluble melanin derivatives Melasyn-100™ from San-mar laboratories, Inc. (Elmsford, N.Y.) and MelanZe™ from Zylepsis (Ashford, Kent, United Kingdom). The pigments were tested at concentrations ranging from 0.0001%(W/V) to 1%(W/V) and peptides were tested at 50 μM.
The assay was conducted in the following manner. Human HaCaT keratinocytes (Boukamp P., et al., J Cell Biol 106, 3, 761-771 (1988)) were maintained in Dulbecco's Modified Eagle's Medium (DMEM) containing 10% fetal bovine serum (FBS), 4.5 mg/ml glucose, 2 mM L-glutamine, 50 U/ml penicillin and 50 μg/ml streptomycin (Life Technologies, Gaithersburg, Md.). Cells were maintained at <80% confluency in 5% CO2 (v/v) and were used in experimental procedures up to culture passage 15. Human primary melanocytes (Clonetics, San Diego, Calif. or Cascade Biologics, Portland, Oreg.) were maintained according to manufacturer's instructions. To establish keratinocyte-melanocyte co-cultures, 6×10^4 melanocytes were plated in each well of a 24 well plate and maintained according to manufacturer's instructions.
Melanocytes were rinsed three times with melanocyte growth media without PMA and keratinocytes (6×10^4) were plated to establish the co-cultures in this media. Co-cultures were treated for three days with test peptides and pigments, and assayed for cell viability and pigment level on the forth day. Cell viability was assayed using alamarBlue™ (Acumed International, West Lake, Ohio) following manufacturer's instructions. No change in viability was observed following three daily treatments with all tested material. All in vitro experiments were performed in triplicates, and were repeated at least three times.
Following three daily treatments, the co-cultures were briefly fixed (10% buffered formalin from Fisher Scientific, 15 minutes), washed three times with Phosphate-buffered saline (PBS, from Life Technologies) and stained with L-3,4-Dihydroxyphenylalanine (DOPA, from Sigma, St. Louis, Mo.) 0.1% in PBS, for 5 hours at 37° C., followed by two PBS washes and formalin (10%, overnight) fixation. DOPA is a substrate for tyrosinase, therefore an increase in staining represents increased tyrosinase activity and pigment production. DOPA-stained monolayers were used for image analysis. All images were obtained and analyzed with Image Pro Plus 3.0 software (Media Cybernetics, Silver Spring, Md.). Parameters measured were surface area of stained material within melanocyte and keratinocytes and the total surface area of the cells in the culture, and the relative pigmented area was calculated. A value of 100% was assigned to untreated controls, and values of treatment groups were normalized to their relevant controls. In all experiments there was no difference between PBS-treated cells and untreated controls. Data are presented with standard deviation (SigmaPlot® 5.0, SPSS Science, Chicago, Ill.).
Forskolin (Sigma, St. Louis, Mo.), a known inducer of pigmentation, served as a positive control and a reference point. Forskolin was administered at 1% (W/V).

Test [2] deals with Dark skinned Yucatan microswine. Description: Induced pigmentation in vivo, F&M-stained histological skin sections scored for pigment deposition. More on the design: key: −1: slight lightening; 0: No change; 1: Minimal increase in pigment deposition; 2: Increased pigment deposition; 3: Strong increase in pigment deposition, some increase in caps; 4: Strong increase in pigment deposition, strong increase in caps. The conditions noted are these: topical twice a day, five days/week, eight or nine weeks, average of all sites of responsive swine. As to the method: Compositions of the present invention were tested for their ability to induce in vivo pigmentation in skin cells in the following experiment. Dark skinned Yucatan microswine (Charles River, Portland, Me.) were housed in appropriately sized cages in an environmentally controlled room with a 12-hour light-12-hour dark photoperiod and supplied with food and water ad libitum. Animal care was based on the “Guide for the Care and Use of Laboratory Animals”, NIH Publication No. 85-23. Twenty μl of test peptides were applied topically, twice a day, five days/week, for eight or nine weeks, on the dorsum of the swine. Treatments of individual swine were always arranged in a head to tail order on one side, and in a tail to head order on the other side of the animal. Biopsies were taken using standard techniques.
Sections from the skin biopsies were stained with Hematoxylin and Eosin (H&E), or with Fontana-Mason (F&M), using standard procedures (Sheenan DC, Hrapckak BB, eds., Theory and Practice of Histo-technology. p. 223, 277, The C. V. Mosby Co., St. Louis (1980)). F&M staining identifies silver nitrate reducing molecules. In skin, this non-specific stain identifies primarily melanin. At least three sections per biopsy were processed. […]
F&M-stained histological skin sections were evaluated for the change in pigment deposition within the treated site. […]

The mark [3] stands for this setting: Table 1, 50 μM, three daily treatments, relative pigmented area after DOPA staining, control 0.184.
[4] abbreviates: Table 1, 50 μM, three daily treatments, versus control.

For the compound `[Cl][Cu][Cl]` [CuCl2, copper chloride, reference compound], in test [1] (Table 2, CuCl2 0.001% (w/v), control 0.029), the Mean area amounted to 0.063. Also, the “% increase” value in test [1] (Table 2, CuCl2 0.001% (w/v), normalized to control) is 220%.
As for `C=C[C@@]1(C)CC(=O)[C@]2(O)[C@@]3(C)[C@@H](O)CCC(C)(C)[C@@H]3[C@H](O)[C@H](OC(C)=O)[C@@]2(C)O1` [Forskolin, reference compound], the Mean area in test [1] (Table 2, Forskolin 1% (w/v), positive control, control 0.029) is reported as 0.067. Moreover, the “% increase” value in test [1] (Table 2, Forskolin 1% (w/v), positive control, normalized to control) is recorded as 231.0%. Also, the “Score (pigment deposition)” value in test [2] (positive control at 1% (W/V)) stood at 1.
As to “H2-Leu-Ile-Gly-Arg-Leu-NH2 (H-LIGRL-NH2) [Peptide 2]”, the Mean area in test [1] (setting [3]) came out at 0.240. Besides, the “% increase” value in test [1] (setting [4]) came to 30.8%.
On to “H2-Leu-Ile-Gly-Arg-NH2 (H-LIGR-NH2) [Peptide 1]”, for which the Mean area is listed as 0.270 in test [1] (setting [3]) and 0.080 in test [1] (Table 2, Peptide 1 50 μM, three daily treatments, control 0.029). Besides, the “% increase” value in test [1] (setting [4]) worked out at 46.8%; in test [1] (Table 2, Peptide 1 50 μM, normalized to control), 279%. The “Score (pigment deposition)” value in test [2] (peptide at 250 μM or 500 μM) stood at 2.
